The subject of test [1] is SW480 colon carcinoma cells. The test is described as follows: Cell viability assay (CellTiter-Glo) in SW480 colon carcinoma cells. The class given is cell-based, human. Particulars: Homo sapiens, 96 h, four days. The procedure, abridged: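 SW480 cells stably carrying an Sp5-promoter luciferase reporter were plated at 2,000 cells/well in DMEM with 1% FBS and treated with compound for four days at 37 °C. Viability was read as ATP luminescence with CellTiter-Glo after about 12 min; DMSO-treated wells served as controls.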

The subject of test [2] is primary human mesenchymal stem cells (hMSCs). The test is described as follows: Tenocyte differentiation assay (SCXA-positive cells) in hMSCs. The class given is cell-based. Particulars: for EC50: Homo sapiens, Mesenchymal stem cells, 96 h, hMSCs, 4 days, SCXA positive cells; for percent in parentheses under EC50 >100: given for EC50 >100 μM, meaning not defined in this example. The method, boiled down: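 Passage 3–6 hMSCs were compound-treated, fixed in 4% formaldehyde and stained overnight at 4 °C with anti-SCXA antibody; SCXA-positive cells were counted by imaging. Counts were normalized to the mean of 12 DMSO wells as fold change, averaged over 3 replicate wells per concentration, and curve-fitted for EC50.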

For a further test, the system named is IL-6. The test is described as follows: IL-6 inhibition in LPS-stimulated human peripheral blood mononuclear cells (HTRF). The class given is cell-based. The conditions noted are these: Homo sapiens, PBMC; for EC50: huPBMCs, LPS 50 ng/mL, 22 hours, IL-6 HTRF; for inhibition at 10 µM: read-out: percent inhibition at 10 μM. The procedure, abridged: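 Fresh human PBMCs at 1×10e6 cells/mL in RPMI/1% FBS were stimulated with 50 ng/mL E. coli 0111:B4 LPS added 2 h after compound, then incubated 22 h at 37° C. Secreted IL-6 was measured by HTRF (665/620 nm ratio) after 3 h at room temperature. EC50 was taken from activity normalized to DMSO-treated cells.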

Another test addresses GSK3β kinase (Homo sapiens (Human), UniProt P49841). The test is described as follows: GSK3β kinase assay (Ser/Thr 09 peptide Z-lyte FRET). The conditions noted are these: read-out: EC50 (method: IC50). The class given is biochemical. The procedure, abridged: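 Non-radioactive Z-lyte FRET read-out, kinase activity expressed as coumarin/fluorescein emission ratio. Compounds incubated with the reaction mixture one hour at room temperature in duplicate, then development buffer added for another hour. IC50 from non-linear regression of dose-response curves.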

For test [3], the system named is primary human fibroblasts derived from IPF patients (LL29 cells). The test is described as follows: Inhibition of the fibrotic process: αSMA staining in TGF-β1 treated LL29 fibroblasts. It counts as cell-based. Particulars: Homo sapiens, Fibroblast, 96 h; LL29 cells, TGF-β1 20 ng/mL, 4 days, % αSMA positive cells. The procedure, abridged: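 LL29 fibroblasts from IPF patients, in F12 medium with 1% FBS, treated with TGF-β1 plus compound; TGF-β1 with DMSO as positive control, DMSO alone as negative control. After 4 days' incubation, SYTOX green nucleic acid stain added at 1 μM final, 30 min at room temperature.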

For a further test, the target named is DYRK1A kinase (Homo sapiens (Human), UniProt Q13627). The test is described as follows: DYRK1A kinase assay (Ser/Thr 18 peptide Z-lyte FRET). It counts as biochemical. The conditions noted are these: read-out: EC50 (method: IC50). The method, boiled down:
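This Z-lyte FRET assay reads the coumarin/fluorescein emission ratio. Compounds were incubated with the reaction mixture for 1 h at room temperature, followed by development reagent for a further 1 h at room temperature, in duplicate.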

Test [4] deals with Wnt activity (Sp5-Luc reporter in SW480 cells). The test is described as follows: Screening assay for Wnt activity: Sp5-Luc reporter gene assay in SW480 colon carcinoma cells. The class given is cell-based, human. The conditions noted are these: Homo sapiens, 36 to 48 hours. The method, boiled down: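 SW480 colon carcinoma cells stably carrying a lentiviral luciferase reporter driven by an Sp5 promoter with eight TCF/LEF sites, plated at 4,000 cells/well in DMEM with 1% FBS. Compound exposure for 36–48 h at 37 °C, then luminescence read. Signals normalized to DMSO; EC50 from four-parameter nonlinear fit.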

Each structure is given as a SMILES string.

In general, EC50 refers to the concentration giving half of the maximal effect. A higher EC50 goes with lower potency in that assay. A word on the IC50: it is the concentration at which inhibition is half-maximal. Broadly, the inhibition is the share of the control response that was lost under treatment.

GSK3β kinase, sequence (P49841 whole entry): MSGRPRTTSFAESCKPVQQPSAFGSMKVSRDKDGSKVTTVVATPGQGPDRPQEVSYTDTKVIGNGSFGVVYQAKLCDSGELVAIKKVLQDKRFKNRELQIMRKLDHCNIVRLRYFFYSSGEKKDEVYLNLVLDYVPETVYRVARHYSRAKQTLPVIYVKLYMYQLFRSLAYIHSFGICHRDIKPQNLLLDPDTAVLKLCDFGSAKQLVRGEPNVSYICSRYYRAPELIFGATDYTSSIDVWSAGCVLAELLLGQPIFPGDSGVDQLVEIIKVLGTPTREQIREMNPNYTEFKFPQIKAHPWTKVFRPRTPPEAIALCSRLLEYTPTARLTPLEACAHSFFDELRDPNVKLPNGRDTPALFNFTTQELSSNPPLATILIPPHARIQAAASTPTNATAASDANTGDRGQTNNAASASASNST

As to `CN1CCC(Oc2ccc(NC(=O)c3n[nH]c4c(F)cc(-c5cnn(C)c5)cc34)cc2)CC1` [Compound 152, 7-Fluoro-5-(1-methyl-1H-pyrazol-4-yl)-N-(4-((1-methylpiperidin-4-yl)oxy)phenyl)-1H-indazole-3-carboxamide], the EC50 is 0.783 µM in test [1]; over 100 µM in test [2]; 6.85 µM in the test on IL-6; 1.12 µM in test [3]; 1.46 µM in test [4]. In addition, the “percent in parentheses under EC50 >100” value in test [2] was “(34.7%)”. Also, the IC50 at GSK3β kinase is 0.065 µM; on DYRK1A kinase, 0.038 µM.

For `CN1CCC(Oc2ccc(NC(=O)c3n[nH]c4cc(F)c(-c5cn(C)nc5CO)cc34)cc2)CC1` [Compound 153, 6-Fluoro-5-(3-(hydroxymethyl)-1-methyl-1H-pyrazol-4-yl)-N-(4-((1-methylpiperidin-4-yl)oxy)phenyl)-1H-indazole-3-carboxamide], the EC50 is over 10 µM in test [1]; over 100 µM in test [2]; over 10 µM with IL-6; over 10 µM in test [3]; over 10 µM in test [4]. Moreover, the “percent in parentheses under EC50 >100” value in test [2] was “(20.7%)”. The inhibition at 10 µM in the test on IL-6 came to 3.7%. Also, the IC50 is over 10 µM on GSK3β kinase and 1.21 µM at DYRK1A kinase.

With `Cn1cc(-c2cc3c(C(=O)Nc4cccc(OCCN5CCCC5)c4)n[nH]c3cc2F)cn1` [Compound 154, 6-Fluoro-5-(1-methyl-1H-pyrazol-4-yl)-N-(3-(2-(pyrrolidin-1-yl)ethoxy)phenyl)-1H-indazole-3-carboxamide], the EC50 in test [1] is 0.414 µM; in test [2], over 100 µM; with IL-6, 1.86 µM; in test [3] it was 1.13 µM; in test [4] it was 0.306 µM. Also, the “percent in parentheses under EC50 >100” value in test [2] is recorded as “(21.0%)”. Moreover, the IC50 was determined as 0.02 µM at GSK3β kinase and 0.005 µM on DYRK1A kinase.

On to `CN1CCC(Oc2cc(NC(=O)c3n[nH]c4cc(F)c(-c5cnn(C)c5)cc34)ccn2)CC1` [Compound 156, 6-Fluoro-5-(1-methyl-1H-pyrazol-4-yl)-N-(2-((1-methylpiperidin-4-yl)oxy)pyridin-4-yl)-1H-indazole-3-carboxamide], for which the EC50 in test [1] came to 0.064 µM; in test [2], 2.64 µM; in the test with IL-6, 4.29 µM; in test [3] it was 1.38 µM; in test [4], 0.109 µM. For the same compound, the IC50 was determined as 0.053 µM at GSK3β kinase and 0.002 µM at DYRK1A kinase.

Regarding `CN1CCC(Oc2ncc(NC(=O)c3n[nH]c4cc(F)c(-c5cnn(C)c5)cc34)cc2F)CC1` [Compound 157, 6-Fluoro-N-(5-fluoro-6-((1-methylpiperidin-4-yl)oxy)pyridin-3-yl)-5-(1-methyl-1H-pyrazol-4-yl)-1H-indazole-3-carboxamide], the 50% effective concentration (EC50) is 1.3 µM in test [1]; over 100 µM in test [2]; 1.31 µM with IL-6; 2.58 µM in test [3]; 1.15 µM in test [4]. For the same compound, the “percent in parentheses under EC50 >100” value in test [2] is “(35.3%)”. The IC50 at GSK3β kinase is 0.02 µM; on DYRK1A kinase it was 0.001 µM.

As to `CC(C)n1cc(-c2cc3c(C(=O)Nc4ccc(OC5CCN(C)CC5)cc4)n[nH]c3cc2F)cn1` [Compound 158, 6-Fluoro-5-(1-isopropyl-1H-pyrazol-4-yl)-N-(4-((1-methylpiperidin-4-yl)oxy)phenyl)-1H-indazole-3-carboxamide], the EC50 was 0.784 µM in test [1]; over 100 µM in test [2]; 5.99 µM in the test with IL-6; 1.15 µM in test [3]; 1.16 µM in test [4]. For the same compound, the “percent in parentheses under EC50 >100” value in test [2] was “(17.4%)”. The values for the IC50 at GSK3β kinase and at DYRK1A kinase were 0.349 µM and 0.023 µM, respectively.

Take `CN1CCC(n2cc(-c3ccc4[nH]nc(C(=O)Nc5ccc(F)cc5)c4c3)cn2)CC1` [Compound 159, N-(4-Fluorophenyl)-5-(1-(1-methylpiperidin-4-yl)-1H-pyrazol-4-yl)-1H-indazole-3-carboxamide]: the EC50 in test [1] is 0.81 µM; in test [2], over 100 µM; with IL-6, 2.82 µM; in test [3], 1.37 µM; in test [4] it was 0.68 µM. In test [2], the “percent in parentheses under EC50 >100” value is listed as “(15.5%)”. Moreover, the results for the IC50 on GSK3β kinase and on DYRK1A kinase were 0.548 µM and 0.023 µM, respectively.

With `CN1CCC(Oc2ccc(NC(=O)c3n[nH]c4cc(F)c(-c5ccn(C)n5)cc34)cc2)CC1` [Compound 160, 6-Fluoro-5-(1-methyl-1H-pyrazol-3-yl)-N-(4-((1-methylpiperidin-4-yl)oxy)phenyl)-1H-indazole-3-carboxamide], the half-maximal effective concentration (EC50) is 2.6 µM in test [1]; over 100 µM in test [2]; over 10 µM with IL-6; 3.24 µM in test [3]; 3.56 µM in test [4]. Further, the “percent in parentheses under EC50 >100” value in test [2] is recorded as “(18.6%)”. Moreover, the inhibition at 10 µM with IL-6 came out at 27.9%. For the same compound, the concentration for half-maximal inhibition (IC50) on GSK3β kinase worked out at 3.26 µM; on DYRK1A kinase it was 0.061 µM.

`Cc1ncc(-c2ccc3[nH]nc(C(=O)Nc4ccc(OC5CCN(C)CC5)cc4)c3c2)n1C` [Compound 161, 5-(1,2-Dimethyl-1H-imidazol-5-yl)-N-(4-((1-methylpiperidin-4-yl)oxy)phenyl)-1H-indazole-3-carboxamide]: the EC50 in test [1] was 0.833 µM; in test [2], over 100 µM; with IL-6, 3.4 µM; in test [3] it was 3.72 µM; in test [4], 0.642 µM. For the same compound, the “percent in parentheses under EC50 >100” value in test [2] is “(31.8%)”. For the same compound, the results for the IC50 at GSK3β kinase and on DYRK1A kinase were 0.12 µM and 0.005 µM, respectively.

Regarding `Cc1nc(-c2ccc3[nH]nc(C(=O)Nc4ccc(OC5CCN(C)CC5)cc4)c3c2)cs1` [Compound 162, N-(4-((1-Methylpiperidin-4-yl)oxy)phenyl)-5-(2-methylthiazol-4-yl)-1H-indazole-3-carboxamide], the EC50 in test [1] was 4.6 µM; in test [2] it was over 100 µM; in the test on IL-6, 7.69 µM; in test [3] it was 2.64 µM; in test [4], over 10 µM. Besides, in test [2], the “percent in parentheses under EC50 >100” value is listed as “(12.7%)”. The IC50 on GSK3β kinase was found to be 5.06 µM; on DYRK1A kinase it was 0.141 µM.

For the compound `Cc1ncc(-c2cc3c(C(=O)Nc4ccc(OC5CCN(C)CC5)cc4)n[nH]c3cc2F)s1` [Compound 163, 6-Fluoro-N-(4-((1-methylpiperidin-4-yl)oxy)phenyl)-5-(2-methylthiazol-5-yl)-1H-indazole-3-carboxamide], the EC50 is 0.331 µM in test [1]; over 100 µM in test [2]; 8.83 µM in the test on IL-6; 1 µM in test [3]; 1.53 µM in test [4]. In addition, in test [2], the “percent in parentheses under EC50 >100” value is given as “(40.7%)”. Besides, the concentration for half-maximal inhibition (IC50) on GSK3β kinase is 0.094 µM; at DYRK1A kinase it was 0.004 µM.

In the case of `Cc1cc(-c2ccc3[nH]nc(C(=O)Nc4ccc(OC5CCN(C)CC5)cc4)c3c2)sn1` [Compound 164, 5-(3-Methylisothiazol-5-yl)-N-(4-((1-methylpiperidin-4-yl)oxy)phenyl)-1H-indazole-3-carboxamide], the EC50 is 0.268 µM in test [1]; over 100 µM in test [2]; 1.33 µM in the test with IL-6; 0.305 µM in test [3]; 1.39 µM in test [4]. Moreover, the “percent in parentheses under EC50 >100” value in test [2] is listed as “(33.1%)”. Besides, the IC50 came to 0.088 µM at GSK3β kinase and 0.003 µM on DYRK1A kinase.

(Values after US10934297B2, “5-heteroaryl substituted indazole-3-carboxamides and preparation and use thereof” (Samumed, LLC, priority 2018, dated 2021).)
